Experimental data from patent publication US9006415B2, “Targeted delivery of nucleic acids” (Massachusetts Institute of Technology, priority 2010, dated 2015).

How the values were obtained:
HeLa cells = test: Inhibition of endocytosis (uptake and GFP knockdown with small molecule inhibitors); assay type: cell-based, human; conditions: HeLa cells pre-incubated with inhibitor 1 h
Method: HeLa cells grown in 96-well plates at ˜70% confluence were incubated with small molecule inhibitors for 1 h at 37° C., followed by incubation with tetramethylrhodamine-labeled TP-LyP1 (3 μM) or TPNs containing both labeled peptide (3 μM) and GFP siRNA (100 nM) for an additional hour at 37° C. The cells were washed three times with cold PBS and were subsequently either imaged with a CCD camera mounted on a Nikon TE200 inverted epifluorescence microscope (for peptide-only), or trypsinized for flow cytometry analysis by the BD-LSR II system to assess GFP expression (for incubations with nanocomplexes).
To identify the mechanism by which tandem peptides enter cells, these experiments were repeated in the presence of a variety of endocytosis inhibitors [Veldhoen, S., Laufer, S. D., Trampe, A. & Restle, T. Cellular delivery of small interfering RNA by a non-covalently attached cell-penetrating peptide: quantitative analysis of uptake and biological effect. Nucleic Acids Res 34, 6561-6573, (2006)]. […] Thus, tandem peptides are taken up by cells mainly via macropinocytosis and lipid-raft.

p32 receptor = target: T1, p32 receptor (Homo sapiens, UniProt Q07021); test: Competition of GFP silencing with free LyP-1 peptide; assay type: cell-based; conditions: nanocomplexes on HeLa cells
T1 construct: incubated over Hela cells, which express p32 on the cell surface; endogenous in cells; host or cells: HeLa (stably expressing dGFP)
T1 sequence (Q07021 74-282): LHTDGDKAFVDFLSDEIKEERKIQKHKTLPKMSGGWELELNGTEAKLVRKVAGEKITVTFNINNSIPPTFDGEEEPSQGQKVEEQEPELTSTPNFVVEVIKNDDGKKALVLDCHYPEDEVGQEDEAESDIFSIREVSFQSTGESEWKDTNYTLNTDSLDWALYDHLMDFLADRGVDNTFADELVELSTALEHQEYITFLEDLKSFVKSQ
Method: For the initial screen, HeLa cells stably expressing destabilized GFP were cultured in 96-well plates to ˜70-80% confluence. siRNA (0-100 nM) was incubated with 20-fold molar excess of tetramethylrhodamine-labelled tandem peptides in PBS for 10-15 min at room temperature, then incubated over cells in DMEM for 4 h at 37° C., after which the medium was replaced. The complexes were then added to HeLa cell cultures and incubated for 4 h at 37° C., after which the medium was replaced with 100 μL of fresh medium with 10% serum. […] For competition experiments with free LyP-1 peptide, cells were pre-incubated with unlabeled LyP-1 peptide or ARAL control peptide at specified concentrations for 1 h at 37° C. before treatment with peptide/siRNA complexes.

tumor parenchyma = test: Tumor penetration with iRGD in place of Lyp-1; assay type: in vivo; conditions: data not shown

Row | effect of control peptide on GFP silencing (p32 receptor) | Compound | GFP knockdown in presence of inhibitor (HeLa cells) | cell binding of tandem peptide in presence of inhibitor (HeLa cells) | tumor penetration (tumor parenchyma)
1 |  | OCC1OC(O)CC(O)C1O (stereo not drawn) [Deoxyglucose] | inhibited GFP knockdown |  | 
2 | no effect | ARALPSQRSR [control peptide] |  |  | 
3 |  | CCCCCCCCCC(=O)NC(CN1CCOCC1)C(O)c1ccccc1 (stereo not drawn) [PDMP] | significantly decreased | significantly decreased | 
4 |  | CRGDKGPDC [iRGD] |  |  | penetrate tumor parenchyma in a to time-dependent manner
5 |  | N=C(N)NC(=O)c1nc(Cl)c(N)nc1N [amiloride] | significantly decreased | significantly decreased | 
6 |  | OC[C@H]1O[C@@H]2O[C@H]3[C@H](O)[C@@H](O)[C@@H](O[C@H]4[C@H](O)[C@@H](O)[C@@H](O[C@H]5[C@H](O)[C@@H](O)[C@@H](O[C@H]6[C@H](O)[C@@H](O)[C@@H](O[C@H]7[C@H](O)[C@@H](O)[C@@H](O[C@H]8[C@H](O)[C@@H](O)[C@@H](O[C@H]1[C@H](O)[C@H]2O)O[C@@H]8CO)O[C@@H]7CO)O[C@@H]6CO)O[C@@H]5CO)O[C@@H]4CO)O[C@@H]3CO [β-cyclodextrin] | significantly decreased | significantly decreased | 
